The values below are quoted from earlier work in patent publication US20070042049A1, “Nanoparticulate benidipine compositions” (Elan Pharma International, Limited, priority 2005, published 2007).

Structures can show the parent of a compound that is named as a salt. Where two headings read alike, the source gives them in different places.

In the case of `COC(=O)C1=C(C)NC(C)=C(C(=O)O[C@@H]2CCCN(Cc3ccccc3)C2)C1c1cccc([N+](=O)[O-])c1` (stereo in doubt) [Benidipine hydrochloride], the solubility entry reads like this: (in acetic anhydride) “slightly soluble”; (in dimethylformamide) “freely soluble”; (in ethanol) “soluble”; (in formic acid) “very soluble”; (in methanol) “soluble”; (in water) “relatively insoluble”.
